Measurements taken from US8211924B2, “1-(azolin-2-yl)amino-1,2-diphenylethane compounds for combating animal pests” (BASF SE, priority 2007, dated 2012).
Read-outs that look alike come from different tables or passages of the source.

Legend:
Experiment in all cases: whole plant or invertebrate
Assay type in all cases: in vivo
[1] = test system: Cotton aphid (Aphis gossypi); settings: 120 h, cotton cotyledons dipped, determined after 5 days, read-out: mortality in comparison with untreated controls
Experimental: (§1) Cotton plants in the cotyledon stage (variety ‘Delta Pine’) are infested with approximately 100 laboratory-reared aphids by placing infested leaf sections on top of the test plants. The leaf sections are removed after 24 hours. The cotyledons of the intact plants are dipped into gradient solutions of the test compound. Aphid mortality on the treated plants, relative to mortality on check plants, is determined after 5 days.

[2] = test system: Green Peach Aphid (Myzus persicae); settings: 120 h, pepper leaves dipped, determined after 5 days, read-out: mortality in comparison with untreated controls
Experimental: as §1, with “Pepper” for “Cotton”, “2nd leaf-pair” for “cotyledon”, “‘California Wonder’)” for “‘Delta Pine’)”, “40” for “100”, “leaves” for “cotyledons”

[3] = test system: Silverleaf Whitefly; settings: Bemisia argentifolii; for mortality at 10 ppm: concentration 10 ppm; for mortality at 100 ppm: concentration 100 ppm
Experimental: Selected cotton plants were grown to the cotyledon state (one plant per pot). The cotyledons were dipped into the test solution to provide complete coverage of the foliage and placed in a well-vented area to dry. […] The tip, containing the collected insects, was then gently inserted into the soil containing the treated plant, allowing insects to crawl out of the tip to reach the foliage for feeding. The cups were covered with a re-usable screened lid (150 micron mesh polyester screen PeCap from Tetko Inc). Test plants were maintained in the holding room at about 25° C. and 20-40% relative humid-ity for 3 days avoiding direct exposure to the fluorescent light (24 hour photoperiod) to prevent trapping of heat inside the cup. Mortality was assessed 3 days after treatment of the plants.
by evaluation of the test shown in paragraph III.).

[4] = 72 h, 300 ppm, cotton cotyledons dipped, assessed 3 days after treatment, read-out: mortality in comparison with untreated controls
[5] = in Gossypium hirsutum, comparative example 1, test of paragraph III, read-out: mortality in comparison with untreated controls [%]
[6] = in Gossypium hirsutum, concentration 300 ppm, comparative example 1, test of paragraph III, read-out: mortality in comparison with untreated controls [%]

| Compound | mortality at 300 ppm [1] [%] | mortality at 300 ppm [2] [%] | mortality at 300 ppm [3, 4] [%] | mortality at 10 ppm [3, 5] [%] | mortality at 100 ppm [3, 5] [%] | mortality at 300 ppm [3, 6] [%] |
| --- | --- | --- | --- | --- | --- | --- |
| Cc1cc(C)cc(CC(N=C2SCCN2CCCOC2CCCCO2)c2cccc(Cl)c2Cl)c1 (stereo not drawn) [Example 2, 1-{3-[3-(tetrahydropyran-2-yloxy)propyl]thiazolidin-2-ylidene}amino-1-(2,3-dichlorophenyl)-2-(3,5-dimethylphenyl)-ethane] | > 70 | > 70 | > 70 | – | – | – |
| Cc1cc(C)cc(CC(NC2=NCCS2)c2cccc(Cl)c2Cl)c1 (stereo not drawn) [compound C.3, reference compound] | – | – | – | 0 | 100 | 100 |
| Cc1cc(C)cc(CC(N=C2SCCN2C(=S)Nc2cccc(C(F)(F)F)c2)c2cccc(Cl)c2Cl)c1 (stereo not drawn) [Example 4, 2-[1-(2,3-dichlorophenyl)-2-(3,5-dimethylphenyl)ethylimino]-thiazolidine-3-carbothioic acid (3-trifluoromethylphenyl)amide] | > 70 | > 70 | > 70 | 50 | 100 | 100 |
| Cc1cc(C)cc(CC(N=C2SCCN2C2=NCCS2)c2cccc3c2OC(F)(F)O3)c1 (stereo not drawn) [Example 3, 1-(4,5,4′,5′-tetrahydro-[2,3]-bithiazolyl-2′-ylidene)amino-1-(2,2-difluoro-benzo[1,3]dioxol-4-yl)-2-(3,5-dimethyl-phenyl)-ethane] | > 70 | > 70 | > 70 | – | – | – |
| C#CCN1CCSC1=NC(Cc1cc(C)cc(C)c1)c1cccc(Cl)c1Cl (stereo not drawn) [Example 1, 1-(3-prop-2-ynyl-thiazolidin-2-ylidene)amino-1-(2,3-dichlorophenyl)-2-(3,5-dimethylphenyl)-ethane] | > 70 | > 70 | > 70 | 100 | 100 | 100 |
